Assay results reported in ChEMBL document CHEMBL1201862, “PubChem BioAssay data set” (2004).
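Tested at 5 concentrations; 48 h exposure; 96-well plates; endpoints linearly interpolated, else capped at highest concentration. GI50 is the concentration that inhibits growth by half.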 Calls of active or inactive are those of the source. Cut-off read from the data, not from the text of the source: active = GI50 up to about 1.1 µM and inactive = higher.

Columns and labels:
Assay in all cases: NCI-60 cell line screen, 48 h
786-0 = system: 786-0
A498 = system: A498
A549 = system: A549
ACHN = system: ACHN
BT-549 = system: BT-549
CAKI-1 = system: CAKI-1
CCRF-CEM = system: CCRF-CEM
COLO 205 = system: COLO 205
DU-145 = system: DU-145
EKVX = system: EKVX
HCC 2998 = system: HCC 2998
HCT-116 = system: HCT-116
HCT-15 = system: HCT-15
HL-60 = system: HL-60
HOP-62 = system: HOP-62
HOP-92 = system: HOP-92
HT-29 = system: HT-29
Hs-578T = system: Hs-578T
IGROV-1 = system: IGROV-1
K562 = system: K562
KM12 = system: KM12
LOX IMVI = system: LOX IMVI
M14 = system: M14
MCF7 = system: MCF7
MDA-MB-231 = system: MDA-MB-231
MDA-MB-435 = system: MDA-MB-435
MDA-N = system: MDA-N
MOLT-4 = system: MOLT-4
Malme-3M = system: Malme-3M
NCI-H226 = system: NCI-H226
NCI-H23 = system: NCI-H23
NCI-H460 = system: NCI-H460
NCI-H522 = system: NCI-H522
NCI/ADR-RES = system: NCI/ADR-RES
OVCAR-3 = system: OVCAR-3
OVCAR-4 = system: OVCAR-4
OVCAR-5 = system: OVCAR-5
OVCAR-8 = system: OVCAR-8
PC-3 = system: PC-3
RPMI-8226 = system: RPMI-8226
RXF 393 = system: RXF 393
SF-268 = system: SF-268
SF-295 = system: SF-295
SF-539 = system: SF-539
SK-MEL-28 = system: SK-MEL-28
SK-MEL-2 = system: SK-MEL-2
SK-MEL-5 = system: SK-MEL-5
SK-OV-3 = system: SK-OV-3
SN12C = system: SN12C
SNB-19 = system: SNB-19
SNB-75 = system: SNB-75
SR = system: SR
SW-620 = system: SW-620
T47D = system: T47D
TK-10 = system: TK-10
U-251 = system: U-251
UACC-257 = system: UACC-257
UACC-62 = system: UACC-62
UO-31 = system: UO-31

c1ccc([P+](CC[P+](c2ccccc2)(c2ccccc2)c2ccccc2)(c2ccccc2)c2ccccc2)cc1
GI50 (786-0): 21.9 µM (inactive) | GI50 (A498): 5.87 µM (inactive) | GI50 (A549): 2.49 µM (inactive) | GI50 (ACHN): 19.2 µM (inactive) | GI50 (BT-549): 42.3 µM (inactive) | GI50 (CAKI-1): 61.8 µM (inactive) | GI50 (CCRF-CEM): 0.25 µM (active) | GI50 (COLO 205): 8.81 µM (inactive) | GI50 (DU-145): 48.9 µM (inactive) | GI50 (EKVX): 4.76 µM (inactive) | GI50 (HCC 2998): 7.78 µM (inactive) | GI50 (HCT-116): 16.5 µM (inactive) | GI50 (HCT-15): 29 µM | GI50 (HL-60): 0.396 µM (active) | GI50 (HOP-62): 26.4 µM (inactive) | GI50 (HOP-92): 32.6 µM (inactive) | GI50 (HT-29): 23.4 µM (inactive) | GI50 (Hs-578T): 7.98 µM (inactive) | GI50 (IGROV-1): 38 µM (inactive) | GI50 (K562): 2.44 µM (inactive) | GI50 (KM12): 15.2 µM (inactive) | GI50 (LOX IMVI): 63 µM (inactive) | GI50 (M14): 22.3 µM (inactive) | GI50 (MCF7): 32.1 µM (inactive) | GI50 (MDA-MB-231): 38.6 µM (inactive) | GI50 (MDA-MB-435): 9.64 µM (inactive) | GI50 (MDA-N): 14.4 µM (inactive) | GI50 (MOLT-4): 12.6 µM (inactive) | GI50 (Malme-3M): 14.1 µM (inactive) | GI50 (NCI-H226): > 56.8 µM (inactive) | GI50 (NCI-H23): 26.3 µM (inactive) | GI50 (NCI-H460): 5.79 µM (inactive) | GI50 (NCI-H522): 3.1 µM (inactive) | GI50 (NCI/ADR-RES): 61.4 µM (inactive) | GI50 (OVCAR-3): 13 µM (inactive) | GI50 (OVCAR-4): 34.3 µM (inactive) | GI50 (OVCAR-5): 44.4 µM (inactive) | GI50 (OVCAR-8): 4.82 µM (inactive) | GI50 (PC-3): 6.27 µM (inactive) | GI50 (RPMI-8226): 0.693 µM (active) | GI50 (RXF 393): 27.4 µM (inactive) | GI50 (SF-268): 6.05 µM (inactive) | GI50 (SF-295): 33.7 µM (inactive) | GI50 (SF-539): 9.42 µM (inactive) | GI50 (SK-MEL-28): 13.7 µM (inactive) | GI50 (SK-MEL-2): 9.38 µM (inactive) | GI50 (SK-MEL-5): 8.79 µM (inactive) | GI50 (SK-OV-3): > 84.9 µM (inactive) | GI50 (SN12C): 9.31 µM (inactive) | GI50 (SNB-19): 47.4 µM (inactive) | GI50 (SNB-75): 20.1 µM (inactive) | GI50 (SR): 14.7 µM (inactive) | GI50 (SW-620): 3.62 µM (inactive) | GI50 (T47D): 4.34 µM (inactive) | GI50 (TK-10): 12.3 µM (inactive) | GI50 (U-251): 2.94 µM (inactive) | GI50 (UACC-257): 1.19 µM (inactive) | GI50 (UACC-62): 25.6 µM (inactive) | GI50 (UO-31): > 46.1 µM (inactive)

CCCCCCCCCCCOCCC1C(C(C)OCCN2CCCC2)OC2OC(C)(C)OC21 (stereo not drawn)
GI50 (786-0): 2.62 µM (inactive) | GI50 (A498): 13 µM (inactive) | GI50 (A549): 4.82 µM (inactive) | GI50 (ACHN): 4.63 µM (inactive) | GI50 (BT-549): 3.13 µM (inactive) | GI50 (CAKI-1): 2.4 µM (inactive) | GI50 (CCRF-CEM): 3.6 µM (inactive) | GI50 (COLO 205): 1.92 µM (inactive) | GI50 (DU-145): 5.43 µM (inactive) | GI50 (EKVX): 4.47 µM (inactive) | GI50 (HCC 2998): 1.69 µM (inactive) | GI50 (HCT-116): 1.82 µM (inactive) | GI50 (HCT-15): 2.04 µM | GI50 (HL-60): 1.11 µM (active) | GI50 (HOP-62): 1.91 µM (inactive) | GI50 (HOP-92): 1.82 µM (inactive) | GI50 (HT-29): 1.82 µM (inactive) | GI50 (Hs-578T): 2.68 µM (inactive) | GI50 (IGROV-1): 2.42 µM (inactive) | GI50 (K562): 2.25 µM (inactive) | GI50 (KM12): 0.681 µM (active) | GI50 (LOX IMVI): 1.46 µM (inactive) | GI50 (M14): 0.869 µM (active) | GI50 (MCF7): 2.65 µM (inactive) | GI50 (MDA-MB-231): 1.85 µM (inactive) | GI50 (MDA-MB-435): 1.89 µM (inactive) | GI50 (MDA-N): 1.95 µM (inactive) | GI50 (MOLT-4): 1.68 µM (inactive) | GI50 (Malme-3M): 1.6 µM (inactive) | GI50 (NCI-H226): 8.79 µM (inactive) | GI50 (NCI-H23): 3.91 µM (inactive) | GI50 (NCI-H460): 2.07 µM (inactive) | GI50 (NCI-H522): 0.853 µM (active) | GI50 (NCI/ADR-RES): 3.41 µM (inactive) | GI50 (OVCAR-3): 4.95 µM (inactive) | GI50 (OVCAR-4): 3.98 µM (inactive) | GI50 (OVCAR-5): 3.67 µM (inactive) | GI50 (OVCAR-8): 3.13 µM (inactive) | GI50 (PC-3): 1.97 µM (inactive) | GI50 (RPMI-8226): 2.07 µM (inactive) | GI50 (RXF 393): 2.39 µM (inactive) | GI50 (SF-268): 4.59 µM (inactive) | GI50 (SF-295): 2.32 µM (inactive) | GI50 (SF-539): 2.07 µM (inactive) | GI50 (SK-MEL-28): 1.64 µM (inactive) | GI50 (SK-MEL-2): 1.76 µM (inactive) | GI50 (SK-MEL-5): 1.82 µM (inactive) | GI50 (SK-OV-3): 4.24 µM (inactive) | GI50 (SN12C): 2.53 µM (inactive) | GI50 (SNB-19): 5.56 µM (inactive) | GI50 (SNB-75): 2.47 µM (inactive) | GI50 (SR): 0.46 µM (active) | GI50 (SW-620): 1.78 µM (inactive) | GI50 (T47D): 2.24 µM (inactive) | GI50 (TK-10): 2.37 µM (inactive) | GI50 (U-251): 2.24 µM (inactive) | GI50 (UACC-257): 1.98 µM (inactive) | GI50 (UACC-62): 1.81 µM (inactive) | GI50 (UO-31): 2.51 µM (inactive)
